# Experimental data reported in US20150368296A1, “Method for preventing or treating heart diseases by using a composition containing an isolated peptide” (Tunghai University, priority 2014, published 2015).
# Columns and labels:
# Assay type in all cases: in vivo
# [1] = system: myocardial cells; assay: H&E stained section of heart tissues of high-fat diet mice; conditions: 15 and 25 mg/kg/day intraperitoneally (groups 3 and 4) vs group 2 (high-fat diet, saline)
# Experimental: (§1) The male C57BL/6 mice at the age of 6 weeks were divided into 5 groups for 8 mice in each group. The each group of mice were feed at 24±2° C. of temperature, humidity of 55±10% and 12/12 light cycle for 8 weeks, wherein the group 1 was control group on a normal diet (PMI Nutrition International, Brentwood, Mo., USA) and injected 0.9% saline intraperitoneally; the group 2 was fed high-fat diet to induce the mice into heart hypertrophy model and injected 0.9% saline intraperitoneally; the group 3 was fed high-fat diet and SEQ ID NO.:1 peptide was injected intraperitoneally with the dose of 5 mg/kg/day; the group 4 was fed high-fat diet and SEQ ID NO.:1 peptide was injected intraperitoneally with the dose of 10 mg/kg/day; the group 5 was fed high-fat diet and SEQ ID NO.:1 peptide was injected intraperitoneally with the dose of 25 mg/kg/day. The injection period of each group of mice was between the third week to the sixth week of feeding period. The high-fat diet contained 60% of energy as fat.
# The feeding method was the same with example 1. Mice were divided into 4 groups for feeding at different conditions. The intraperitoneal injection was performed between the third week and the sixth week of the feeding period. […]
# [2] = system: ANP; assay: Western blot of ANP in heart tissue of high-fat diet mice; conditions: high-fat diet C57BL/6 mice, 5, 10 and 25 mg/kg/day intraperitoneally (groups 3 to 5) vs group 2 (high-fat diet, saline); relative to tubulin
# Experimental: (§2) The male C57BL/6 mice at the age of 6 weeks were divided into 5 groups for 8 mice in each group. […]
# (§3) Protein concentration of the extract was determined by Lowry's protein assay method. […]
# (§4) The protein extraction of the mice heart tissues from the each group in example 2 were processed by the western blot method in example 3 to observe the expressions of the indicator of heart hypertrophy and heart failure. The results were shown at FIGS. 12 and 13, wherein the tubulin was used for an internal control in FIG. 12 and the expression levels of the ANP and BNP in the mice heart tissues from the each group was calculated basing on the expression level of tubulin in each figures of FIG. 13.
# [3] = system: ERK-1; assay: Western blot of ERK-1 in heart tissue of high-fat diet mice; conditions: high-fat diet C57BL/6 mice, 5, 10 and 25 mg/kg/day intraperitoneally (groups 3 to 5) vs group 2 (high-fat diet, saline); relative to tubulin
# Experimental: as §2, §3
# (§5) The protein extraction of the mice heart tissues from the each group in example 2 were processed by the western blot method in example 3 to observe the expressions of the related proteins of cardiac fibrosis pathway including: FGF-2, ERK-1, UPA, MMP-2 and MMP-9. The results were shown at FIGS. 10 and 11, wherein the tubulin was used for an internal control in FIG. 10 and the expression levels of FGF-2, ERK-1, UPA, MMP-2 and MMP-9 in the mice heart tissues from the each group was calculated basing on the expression level of tubulin in each figures of FIG. 11.
# [4] = system: MMP-2; assay: Western blot of MMP-2 in heart tissue of high-fat diet mice; conditions: high-fat diet C57BL/6 mice, 5, 10 and 25 mg/kg/day intraperitoneally (groups 3 to 5) vs group 2 (high-fat diet, saline); relative to tubulin
# Experimental: as §2, §3, §5
# [5] = system: cytochrome C; assay: Western blot of cytochrome C in heart tissue of high-fat diet mice; conditions: high-fat diet C57BL/6 mice, 5, 10 and 25 mg/kg/day intraperitoneally (groups 3 to 5) vs group 2 (high-fat diet, saline); relative to tubulin
# Experimental: as §2, §3
# (§6) The protein extraction of the mice heart tissues from the each group in example 2 were processed by the western blot method in example 3 to observe the expressions of related apoptosis regulatory proteins in the mice heart tissues from the each group. The results were shown at FIGS. 2 and 3, wherein the tubulin was used for an internal control in FIG. 2 and the expression levels of related apoptosis regulatory proteins were calculated basing on the expression level of tubulin in each figure of FIG. 3.
# [6] = system: nuclear factor of activated T-cells C3 (NFTA-C3); assay: Western blot of NFTA-C3 in heart tissue of high-fat diet mice; conditions: high-fat diet C57BL/6 mice, 5, 10 and 25 mg/kg/day intraperitoneally (groups 3 to 5) vs group 2 (high-fat diet, saline); relative to tubulin
# Experimental: as §2, §3
# (§7) The protein extraction of the mice heart tissues from the each group in example 2 were processed by the western blot method in example 3 to observe the expressions of nuclear factor of activated T-cells C3 (NFTA-C3) and calcineurin in the mice heart tissues from the each group. The results were shown at FIGS. 4 and 5, wherein the tubulin was used for an internal control in FIG. 4 and the expression levels of NFTA-C3 and calcineurin were calculated basing on the expression level of tubulin in each figure of FIG. 5.
# [7] = system: IL-6; assay: Western blot of IL-6 in heart tissue of high-fat diet mice; conditions: high-fat diet C57BL/6 mice, 5, 10 and 25 mg/kg/day intraperitoneally (groups 3 to 5) vs group 2 (high-fat diet, saline); relative to tubulin
# Experimental: as §2, §3
# (§8) The protein extraction of the mice heart tissues from the each group in example 2 were processed by the western blot method in example 3 to observe the expressions of the related signal transduction proteins of heart hypertrophy including: STAT-3, IL-6, MEK-5 and ERK-5. The results were shown at FIGS. 6 and 7, wherein the tubulin was used for an internal control in FIG. 6 and the expression levels of the related signal transduction proteins of heart hypertrophy in the mice heart tissues from each group was calculated basing on the expression level of tubulin in FIG. 7.
# [8] = system: UPA; assay: Western blot of UPA in heart tissue of high-fat diet mice; conditions: high-fat diet C57BL/6 mice, 5, 10 and 25 mg/kg/day intraperitoneally (groups 3 to 5) vs group 2 (high-fat diet, saline); relative to tubulin
# Experimental: as §2, §3, §5
# [9] = system: FGF-2; assay: Western blot of FGF-2 in heart tissue of high-fat diet mice; conditions: high-fat diet C57BL/6 mice, 5, 10 and 25 mg/kg/day intraperitoneally (groups 3 to 5) vs group 2 (high-fat diet, saline); relative to tubulin
# Experimental: as §2, §3, §5
# [10] = system: ERK-5; assay: Western blot of ERK-5 in heart tissue of high-fat diet mice; conditions: high-fat diet C57BL/6 mice, 5, 10 and 25 mg/kg/day intraperitoneally (groups 3 to 5) vs group 2 (high-fat diet, saline); relative to tubulin
# Experimental: as §2, §3, §8
# [11] = system: STAT-3; assay: Western blot of STAT-3 in heart tissue of high-fat diet mice; conditions: high-fat diet C57BL/6 mice, 5, 10 and 25 mg/kg/day intraperitoneally (groups 3 to 5) vs group 2 (high-fat diet, saline); relative to tubulin
# Experimental: as §2, §3, §8
# [12] = system: calcineurin; assay: Western blot of calcineurin in heart tissue of high-fat diet mice; conditions: high-fat diet C57BL/6 mice, 5, 10 and 25 mg/kg/day intraperitoneally (groups 3 to 5) vs group 2 (high-fat diet, saline); relative to tubulin
# Experimental: as §2, §3, §7
# [13] = system: JNK; assay: Western blot of JNK in heart tissue of high-fat diet mice; conditions: high-fat diet C57BL/6 mice, 5, 10 and 25 mg/kg/day intraperitoneally (groups 3 to 5) vs group 2 (high-fat diet, saline); relative to tubulin
# Experimental: as §1, with “The injection period of each group of mice was between the third week to the sixth week of feeding period. The high-fat diet contained 60% of energy as fat.” left out
# as §3
# (§9) The protein extraction of the mice heart tissues from the each group in example 2 were processed by the western blot method in example 3 to observe the expressions of p38α protein and JNK. The results were shown at FIGS. 8 and 9, wherein the tubulin was used for an internal control in FIG. 8 and the expression levels of p38α protein and JNK were calculated basing on the expression level of tubulin in each figure of FIG. 9.
# [14] = system: Bcl-2 protein; assay: Western blot of Bcl-2 in heart tissue of high-fat diet mice; conditions: high-fat diet C57BL/6 mice, 5, 10 and 25 mg/kg/day intraperitoneally (groups 3 to 5) vs group 2 (high-fat diet, saline); relative to tubulin
# Experimental: as §2, §3, §6
# [15] = system: caspase-3; assay: Western blot of activated caspase-3 in heart tissue of high-fat diet mice; conditions: high-fat diet C57BL/6 mice, 5, 10 and 25 mg/kg/day intraperitoneally (groups 3 to 5) vs group 2 (high-fat diet, saline); relative to tubulin
# Experimental: as §2, §3, §6
# [16] = system: BNP; assay: Western blot of BNP in heart tissue of high-fat diet mice; conditions: high-fat diet C57BL/6 mice, 5, 10 and 25 mg/kg/day intraperitoneally (groups 3 to 5) vs group 2 (high-fat diet, saline); relative to tubulin
# Experimental: as §2, §3, §4
# [17] = system: p38α protein; assay: Western blot of p38α protein in heart tissue of high-fat diet mice; conditions: high-fat diet C57BL/6 mice, 5, 10 and 25 mg/kg/day intraperitoneally (groups 3 to 5) vs group 2 (high-fat diet, saline); relative to tubulin
# Experimental: as §1, with “The injection period of each group of mice was between the third week to the sixth week of feeding period. The high-fat diet contained 60% of energy as fat.” left out
# as §3, §9
# [18] = system: MMP-9; assay: Western blot of MMP-9 in heart tissue of high-fat diet mice; conditions: high-fat diet C57BL/6 mice, 5, 10 and 25 mg/kg/day intraperitoneally (groups 3 to 5) vs group 2 (high-fat diet, saline); relative to tubulin
# Experimental: as §2, §3, §5
# [19] = system: MEK-5; assay: Western blot of MEK-5 in heart tissue of high-fat diet mice; conditions: high-fat diet C57BL/6 mice, 5, 10 and 25 mg/kg/day intraperitoneally (groups 3 to 5) vs group 2 (high-fat diet, saline); relative to tubulin
# Experimental: as §2, §3, §8
substance,measurement,setting,value
"SEQ ID NO.:1 peptide: isolated peptide which amino acid sequence is SEQ ID NO.: 1; extracted from organisms, separated by hydrolysis or chemical synthesis (VHVV)",arrangement of myocardial cells in H&E stained heart sections,[1],more orderly and closely and has normal structure of heart muscles
same,expression level of ANP in the heart tissues,[2],obviously decreased
same,expression level of ERK-1 (related protein of cardiac fibrosis pathway) in heart tissues,[3],obviously lower
same,expression level of MMP-2 (related protein of cardiac fibrosis pathway) in heart tissues,[4],obviously lower
same,expression level of cytochrome C in the heart cell,[5],obviously decreased
same,expression level of NFTA-C3 in the heart cells,[6],obviously decreased
same,expression level of IL-6 in the heart tissues,[7],obviously lower
same,expression level of UPA (related protein of cardiac fibrosis pathway) in heart tissues,[8],obviously lower
same,expression level of FGF-2 (related protein of cardiac fibrosis pathway) in heart tissues,[9],obviously lower
same,expression level of ERK-5 in the heart tissues,[10],obviously lower
same,expression level of STAT-3 in the heart tissues,[11],obviously lower
same,expression level of calcineurin in the heart cells,[12],obviously decreased
same,expression level of JNK in the heart cells,[13],significantly lower
same,expression level of Bcl-2 in the heart cell,[14],obviously increased
same,expression level of activated caspase-3 in the heart cell,[15],obviously decreased
same,expression level of BNP in the heart tissues,[16],obviously decreased
same,expression level of p38α protein in the heart cells,[17],significantly lower
same,expression level of MMP-9 (related protein of cardiac fibrosis pathway) in heart tissues,[18],obviously lower
same,expression level of MEK-5 in the heart tissues,[19],obviously lower
